Values of other authors as cited in patent US7584087B2, “Structure of protein kinase C theta” (Wyeth, priority 2004, dated 2009).

Tests used:
Settings in all cases: result in words, from Meggio et al. 1995
casein kinase 1 (CK1) = tested on: casein kinase 1 (CK1)
[1] = tested on: mitogen-activated protein kinase (MAPK)
PKC isoforms = tested on: PKC isoforms
casein kinase 2 (CK2) = tested on: casein kinase 2 (CK2)
CSK = CSK (Homo sapiens, UniProt P41240)
CSK, sequence (P41240 whole entry, species assumed): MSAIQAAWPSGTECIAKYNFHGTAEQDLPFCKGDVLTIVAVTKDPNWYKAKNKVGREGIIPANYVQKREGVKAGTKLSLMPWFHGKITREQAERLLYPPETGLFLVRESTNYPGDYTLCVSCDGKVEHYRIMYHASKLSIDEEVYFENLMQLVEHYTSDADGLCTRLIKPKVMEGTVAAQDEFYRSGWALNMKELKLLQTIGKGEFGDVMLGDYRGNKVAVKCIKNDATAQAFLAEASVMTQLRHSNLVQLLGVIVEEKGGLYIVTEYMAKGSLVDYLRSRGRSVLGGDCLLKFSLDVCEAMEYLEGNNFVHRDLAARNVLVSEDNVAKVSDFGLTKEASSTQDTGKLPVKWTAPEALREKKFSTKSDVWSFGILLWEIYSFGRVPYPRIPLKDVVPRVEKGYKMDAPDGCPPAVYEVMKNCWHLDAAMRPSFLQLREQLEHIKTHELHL

CN[C@@H]1C[C@H]2O[C@@](C)([C@@H]1OC)n1c3ccccc3c3c4c(c5c6ccccc6n2c5c31)C(=O)NC4 [Staurosporine, staurosporine]
potency against casein kinase 1 (CK1) (casein kinase 1 (CK1)): micromolar | potency against mitogen-activated protein kinase (MAPK) [1]: micromolar | potency against PKC isoforms (PKC isoforms): low nanomolar | potency against casein kinase 2 (CK2) (casein kinase 2 (CK2)): micromolar | potency against CSK (CSK): micromolar
